Target: T1, Motilin Receptor (Oryctolagus cuniculus, UniProt G1T803)
T1 construct: The muscle tissue was homogenized in 10 volumes of 50 mM Tris-Cl; from tissue; host or cells: rabbit colon smooth muscle, crude membrane homogenate
Assay: Motilin receptor binding, rabbit colon membranes, 125I porcine motilin
Design: Rabbit Colon % Inh / inhibition / % Inh (Rabbit colon): dose or concentration left out as unconfirmed
Settings: rabbit colon membranes; for % Inh (Rabbit colon): 125I porcine motilin binding; for inhibition: read-out: Rabbit Colon % Inh; for IC50: read-out: Rabbit Colon IC50
Procedure: Rabbit colon was removed, dissected free from the mucosa and serosa, and diced into small pieces. The muscle tissue was homogenized in 10 volumes of 50 mM Tris-Cl, 10 mM MgCl2, 0.1 mg/ml bacitracin, and 0.25 mM Peflabloc, at pH 7.5 in a Polytron (29000 rpm, 4×15 seconds). The homogenate was centrifuged at 1000×g for 15 minutes and the supernatant discarded. The pellet was washed twice before being suspended in homogenizing buffer. The crude homogenate was resuspended through a 23 gauge needle before storing at −80° C. […] After 60 minutes at 30° C., the samples were cooled in ice, centrifuged in the cold at 13000×g for 1 minute. The pellet was washed twice with 1 ml of cold saline, the supernatant was aspirated, and the pellet at the bottom of the tube counted in a gamma counter. Non-specific binding was determined by the inclusion of 1 mM of unlabeled motilin. IC50 values were determined from Kaleidograph curves.

T1 sequence (G1T803 1-400): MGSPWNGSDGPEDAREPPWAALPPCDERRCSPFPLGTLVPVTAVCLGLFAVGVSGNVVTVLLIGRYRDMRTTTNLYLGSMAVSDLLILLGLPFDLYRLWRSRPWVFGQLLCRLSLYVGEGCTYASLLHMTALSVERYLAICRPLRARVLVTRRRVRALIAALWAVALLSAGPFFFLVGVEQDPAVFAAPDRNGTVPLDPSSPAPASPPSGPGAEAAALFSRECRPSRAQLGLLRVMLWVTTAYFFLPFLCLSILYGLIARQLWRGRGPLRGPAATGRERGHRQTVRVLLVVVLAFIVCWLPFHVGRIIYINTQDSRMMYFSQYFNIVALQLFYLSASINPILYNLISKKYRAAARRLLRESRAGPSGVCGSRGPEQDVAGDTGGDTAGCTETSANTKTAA

Rabbit Colon % Inh [%] | SMILES | other results
27 | O=C(c1ccc(F)cc1)N(CC1CCCC(N(Cc2cccc(Cl)c2)C(=O)c2ccc(-c3ccccc3)cc2)C1)c1cccc(OCCN2CCOCC2)c1 (stereo not drawn) [compound 109] | –
51 | O=C(c1ccc(F)cc1)N(CC1CCCC(N(Cc2ccccc2)C(=O)c2cccc([N+](=O)[O-])c2)C1)c1cccc(OCCN2CCOCC2)c1 (stereo not drawn) [compound 113] | –
49 | O=C(c1ccc(F)cc1)N(CC1CCCC(N(Cc2ccccc2)C(=O)c2ccc3ccccc3c2)C1)c1cccc(OCCN2CCOCC2)c1 (stereo not drawn) [compound 114] | –
26 | O=C(c1ccc(F)cc1)N(CC1CCCC(N(Cc2ccccc2)C(=O)CCc2ccccc2)C1)c1cccc(OCCN2CCOCC2)c1 (stereo not drawn) [compound 115] | –
17 | COc1cccc(C(=O)N(Cc2ccccc2)C2CCCC(CN(C(=O)c3ccc(F)cc3)c3cccc(OCCN4CCOCC4)c3)C2)c1 (stereo not drawn) [compound 117] | –
58 | O=C(c1ccc(F)cc1)N(CC1CCCC(N(Cc2ccccc2)C(=O)c2ccc(-c3ccccc3)cc2)C1)c1cccc(OCCN2CCOCC2)c1 (stereo not drawn) [compound 118] | –
22 | O=C(c1ccc(F)cc1)N(CC1CCCC(N(Cc2ccccc2)C(=O)c2cc(C(F)(F)F)cc(C(F)(F)F)c2)C1)c1cccc(OCCN2CCOCC2)c1 (stereo not drawn) [compound 119] | –
8 | O=C(c1ccc(F)cc1)N(CC1CCCC(N(Cc2ccccc2)S(=O)(=O)c2ccc3ccccc3c2)C1)c1cccc(OCCN2CCOCC2)c1 (stereo not drawn) [compound 123] | –
25 | O=C(c1ccc(F)cc1)N(CC1CCCC(N(Cc2ccccc2)C(=O)Nc2ccccc2)C1)c1cccc(OCCN2CCOCC2)c1 (stereo not drawn) [compound 125] | –

More lines, now with the values behind:

SMILES | Rabbit Colon % Inh [%] | other results
O=C(Nc1ccccc1)N(CC1CCCC(NC(=O)C(F)(F)F)C1)c1cccc(OCCN2CCOCC2)c1 (stereo not drawn) [compound 73] | 25 | –
O=C(NC1CCCC(CN(C(=O)Nc2ccccc2)c2cccc(OCCN3CCOCC3)c2)C1)c1cc(C(F)(F)F)cc(C(F)(F)F)c1 (stereo not drawn) [compound 74] | 29 | –
O=C(NC1CCCC(CN(C(=O)Nc2ccccc2)c2cccc(OCCN3CCOCC3)c2)C1)c1ccc(-c2ccccc2)cc1 (stereo not drawn) [compound 75] | 19 | –
COc1cccc(C(=O)NC2CCCC(CN(C(=O)Nc3ccccc3)c3cccc(OCCN4CCOCC4)c3)C2)c1 (stereo not drawn) [compound 76] | 26 | –
CC(C)(C)C(=O)NC1CCCC(CN(C(=O)Nc2ccccc2)c2cccc(OCCN3CCOCC3)c2)C1 (stereo not drawn) [compound 77] | 19 | –
O=C(CCc1ccccc1)NC1CCCC(CN(C(=O)Nc2ccccc2)c2cccc(OCCN3CCOCC3)c2)C1 (stereo not drawn) [compound 78] | 10 | –
O=C(NC1CCCC(CN(C(=O)Nc2ccccc2)c2cccc(OCCN3CCOCC3)c2)C1)c1ccc2ccccc2c1 (stereo not drawn) [compound 79] | 39 | –
O=C(NC1CCCC(CN(C(=O)Nc2ccccc2)c2cccc(OCCN3CCOCC3)c2)C1)c1cccc([N+](=O)[O-])c1 (stereo not drawn) [compound 80] | 34 | –
O=C(NC1CCCC(CN(C(=O)Nc2ccccc2)c2cccc(OCCN3CCOCC3)c2)C1)C(c1ccccc1)c1ccccc1 (stereo not drawn) [compound 81] | 56 | –
O=C(Nc1ccccc1)N(CC1CCCC(N(Cc2ccccc2)C(=O)c2cc(C(F)(F)F)cc(C(F)(F)F)c2)C1)c1cccc(OCCN2CCOCC2)c1 (stereo not drawn) [compound 82] | 0 | –
O=C(Nc1ccccc1)N(CC1CCCC(N(Cc2ccccc2)C(=O)c2ccc(-c3ccccc3)cc2)C1)c1cccc(OCCN2CCOCC2)c1 (stereo not drawn) [compound 83] | 3 | –
O=C(Nc1ccccc1)N(CC1CCCC(NCc2ccccc2)C1)c1cccc(OCCN2CCOCC2)c1 (stereo not drawn) [compound 84] | – | % Inh (Rabbit colon): 12%
O=C(Nc1ccccc1)N(CC1CCCC(NCc2cccc(Cl)c2)C1)c1cccc(OCCN2CCOCC2)c1 (stereo not drawn) [compound 85] | – | % Inh (Rabbit colon): 28%
O=C(Nc1ccccc1)N(CC1CCCC(N(Cc2cccc(Cl)c2)C(=O)c2cccc(O)c2)C1)c1cccc(OCCN2CCOCC2)c1 (stereo not drawn) [compound 86] | 16 | –
O=C(Nc1ccccc1)N(CC1CCCC(NCc2cc(Cl)cc(Cl)c2)C1)c1cccc(OCCN2CCOCC2)c1 (stereo not drawn) [compound 87] | – | % Inh (Rabbit colon): 22%
O=C(Nc1ccccc1)N(CC1CCCC(NCc2cccc3ccccc23)C1)c1cccc(OCCN2CCOCC2)c1 (stereo not drawn) [compound 88] | – | % Inh (Rabbit colon): 0%
O=C(c1ccc(F)cc1)N(CC1CCCC(NC(=O)C(Cl)(Cl)Cl)C1)c1cccc(OCCN2CCOCC2)c1 (stereo not drawn) [compound 91] | 36 | –
O=C(c1ccc(F)cc1)N(CC1CCCC(N(Cc2cccc(Cl)c2Cl)C(=O)C(Cl)(Cl)Cl)C1)c1cccc(OCCN2CCOCC2)c1 (stereo not drawn) [compound 92] | 80 | –
O=C(c1ccc(F)cc1)N(CC1CCCC(N(Cc2cccc3ccccc23)C(=O)C(Cl)(Cl)Cl)C1)c1cccc(OCCN2CCOCC2)c1 (stereo not drawn) [compound 94] | 28 | –
O=C(c1ccc(F)cc1)N(CC1CCCC(N(Cc2ccc(Cl)cc2)C(=O)C(Cl)(Cl)Cl)C1)c1cccc(OCCN2CCOCC2)c1 (stereo not drawn) [compound 95] | 51 | –

SMILES | Rabbit Colon % Inh [%] | other results
COc1cccc(CN(C(=O)C(Cl)(Cl)Cl)C2CCCC(CN(C(=O)c3ccc(F)cc3)c3cccc(OCCN4CCOCC4)c3)C2)c1 (stereo not drawn) [compound 97] | 56 | –
O=C(c1ccc(F)cc1)N(CC1CCCC(N(Cc2cc(Cl)cc(Cl)c2)C(=O)C(Cl)(Cl)Cl)C1)c1cccc(OCCN2CCOCC2)c1 (stereo not drawn) [compound 98] | – | inhibition: 75%; IC50: 760 nM
O=C(c1ccc(F)cc1)N(CC1CCCC(N(Cc2ccc(Cl)c(Cl)c2)C(=O)C(Cl)(Cl)Cl)C1)c1cccc(OCCN2CCOCC2)c1 (stereo not drawn) [compound 99] | – | inhibition: 62%; IC50: 572 nM
O=C(c1ccc(F)cc1)N(CC1CCCC(N(Cc2cccc(F)c2)C(=O)C(Cl)(Cl)Cl)C1)c1cccc(OCCN2CCOCC2)c1 (stereo not drawn) [compound 100] | 78 | –
O=C(c1ccc(F)cc1)N(CC1CCCC(N(Cc2cccc(Cl)c2)C(=O)C(c2ccccc2)c2ccccc2)C1)c1cccc(OCCN2CCOCC2)c1 (stereo not drawn) [compound 101] | 59 | –
O=C(c1ccc(F)cc1)N(CC1CCCC(N(Cc2cccc(Cl)c2)C(=O)c2cccc([N+](=O)[O-])c2)C1)c1cccc(OCCN2CCOCC2)c1 (stereo not drawn) [compound 102] | 47 | –
O=C(c1ccc(F)cc1)N(CC1CCCC(N(Cc2cccc(Cl)c2)C(=O)c2ccc3ccccc3c2)C1)c1cccc(OCCN2CCOCC2)c1 (stereo not drawn) [compound 103] | 2 | –
O=C(c1ccc(F)cc1)N(CC1CCCC(N(Cc2cccc(Cl)c2)C(=O)CCc2ccccc2)C1)c1cccc(OCCN2CCOCC2)c1 (stereo not drawn) [compound 104] | 30 | –
COc1cccc(C(=O)N(Cc2cccc(Cl)c2)C2CCCC(CN(C(=O)c3ccc(F)cc3)c3cccc(OCCN4CCOCC4)c3)C2)c1 (stereo not drawn) [compound 106] | – | inhibition: 69%; IC50: 1050 nM
O=C(c1ccc(F)cc1)N(CC1CCCC(N(Cc2cccc(Cl)c2)C(=O)c2cc(C(F)(F)F)cc(C(F)(F)F)c2)C1)c1cccc(OCCN2CCOCC2)c1 (stereo not drawn) [compound 107] | 29 | –
O=C(c1ccc(F)cc1)N(CC1CCCC(N(Cc2cccc(Cl)c2)C(=O)C(F)(F)F)C1)c1cccc(OCCN2CCOCC2)c1 (stereo not drawn) [compound 108] | – | inhibition: 70%; IC50: 815 nM
O=C(c1ccc(F)cc1)N(CC1CCCC(N(Cc2cccc(Cl)c2)C(=O)C(Cl)(Cl)Cl)C1)c1cccc(OCCN2CCOCC2)c1 (stereo not drawn) [compound 111] | – | inhibition: 72%; IC50: 880 nM
O=C(c1ccc(F)cc1)N(CC1CCCC(N(Cc2ccccc2)C(=O)C(c2ccccc2)c2ccccc2)C1)c1cccc(OCCN2CCOCC2)c1 (stereo not drawn) [compound 112] | – | inhibition: 70%; IC50: 480 nM
CC(C)(C)C(=O)N(Cc1ccccc1)C1CCCC(CN(C(=O)c2ccc(F)cc2)c2cccc(OCCN3CCOCC3)c2)C1 (stereo not drawn) [compound 116] | – | inhibition: 61%; IC50: 772 nM
O=C(c1ccc(F)cc1)N(CC1CCCC(N(Cc2ccccc2)C(=O)C(F)(F)F)C1)c1cccc(OCCN2CCOCC2)c1 (stereo not drawn) [compound 120] | – | inhibition: 69%; IC50: 954 nM
O=C(c1ccc(F)cc1)N(CC1CCCC(N(Cc2ccccc2)C(=O)C(Cl)(Cl)Cl)C1)c1cccc(OCCN2CCOCC2)c1 (stereo not drawn) [compound 122] | – | inhibition: 64%; IC50: 840 nM
O=C(c1ccc(F)cc1)N(CC1CCCC(N(Cc2ccccc2)C(=O)c2ccco2)C1)c1cccc(OCCN2CCOCC2)c1 (stereo not drawn) [compound 124] | – | inhibition: 70%; IC50: 904 nM
O=C(CCC(=O)N(Cc1ccc(F)cc1)c1cccc(OCCN2CCOCC2)c1)N(CCc1ccccc1)Cc1ccccc1 [compound 128] | – | inhibition: 75%; IC50: 230 nM
O=C(CCCC(=O)N(Cc1ccc(F)cc1)c1cccc(OCCN2CCOCC2)c1)N(CCc1ccccc1)Cc1ccccc1 [compound 129] | – | inhibition: 90%; IC50: 58 nM

Source: US7112586B2, “Substituted diamine derivatives useful as motilin antagonists” (Ortho-McNeil Pharmaceutical, Inc., priority 2000, dated 2006)
